According to patent US20260199535A1, “PCTA derivatives, conjugates thereof and uses thereof” (NOVARTIS AG, priority 2022, published 2026):
Read-outs that look alike come from different tables or passages of the source.

Legend:
[1] = crosslinker bond, 12-membered ring, CH3CN, 60.0 °C
[2] = Buffer stability of Example 17 radiolabeled with ^68GaCl3; assay type: physicochemical; details: ^68Ga-labeled, sodium acetate/acetic acid reaction buffer, t=4 hours; RCP at t=0 75%
Method: A solution of sodium acetate trihydrate in water 1.5 M (740.0 μL), acetic acid (260.0 μL) and (((1S)-5-((2R)-2-amino-3-((2,5-dioxo-1-(4-(3,6,9-tris(carboxymethyl)-3,6,9-triaza-1(2,6)-pyridinacyclodecaphane-4-yl)butyl)pyrrolidin-3-yl)thio)propanamido)-1-carboxypentyl)carbamoyl)-L-glutamic acid (2 mM; 1.907 mg/mL; […]) were added to a 8 mL glass V-vial. This vial was sealed, the vacuum needle and the ^68Ga/HCl 0.1M needle were connected to the vial. The gallium generator was eluted to the reaction vial (approximately 260 MBq [^68Ga]GaCl3 in HCl 0.1M, 1.1 mL). The vacuum needle and the ^68Ga/HCl 0.1M needle were disconnected from the reaction vial. After shaking (600 rpm) at 45° C. for 30 min, the reaction mixture was left cooling down for few minutes. The radiochemical purity and stability were assessed using HPLC-1 conditions: Waters; column: Phenomenex Luna; particle size 2.5 μm; size: 4.6×100 mm; flow rate: 1 mL/min; mobile phase A: H2O+0.1% TFA and B: CH3CN; gradient: 10 to 80% solvent B in 9 min. RCP at t=0, 75% and stability t=4 hours, 74%.

[3] = Buffer stability of Example 17 radiolabeled with ^177LuCl3; assay type: physicochemical; details: ^177Lu-labeled, formulation diluted with PBS, RCP at t=0 93%
Method: To a mixture of sodium acetate in water (35.0 μL, 1.5 M), ascorbic acid in H2O (35.00 μL, 0.04 M), ethanol (58.5 μL) and acetic acid (1.5 μL) was added [^177Lu]LuCl3 ([…], 0.04 M HCl, 58.2 MBq). A solution of (((1S)-5-((2R)-2-amino-3-((2,5-dioxo-1-(4-(3,6,9-tris(carboxymethyl)-3,6,9-triaza-1(2,6)-pyridinacyclodecaphane-4-yl)butyl)pyrrolidin-3-yl)thio)propanamido)-1-carboxypentyl)carbamoyl)-L-glutamic acid (7.9 μL) of a 0.2 mM in water was added. After shaking (450 rpm) at 95° C. for 15 min, the reaction mixture was left cooling down for few minutes. The solution was diluted with 385 μl of PBS to keep the final formulation with EtOH below 9%. The radiochemical purity and stability were assessed using HPLC-1 conditions: Waters; column: phenomenex Luna; particle size 2.5 μm; size: 4.6×100 mm; flow rate: 1 mL/min; mobile phase A: H2O+0.1% TFA and B: CH3CN; gradient: 10 to 80% solvent B in 9 min.

[4] = crosslinker bond; 12-membered ring; intermediate G (1 eq)/DIPEA (5 eq); CH3CN; 15.6 mM; 60.0 °C

CC(C)(C)OC(=O)C[C@@H](NCCOCCN[C@H](CC(=O)OC(C)(C)C)c1ccccn1)C(=O)OC(C)(C)C
ring closure, isolated yield ([1]; the molecule shown is the open-chain precursor, methyl 2,6-bis(bromomethyl)isonicotinate (1 eq)/DIPEA (5 eq), 20.9 mM): 48.7%

N[C@@H](CSC1CC(=O)N(CCCCC2CN(CC(=O)O)CCN(CC(=O)O)Cc3cccc(n3)CN2CC(=O)O)C1=O)C(=O)NCCCC[C@H](NC(=O)N[C@@H](CCC(=O)O)C(=O)O)C(=O)O (stereo partly drawn) [Example 17, (((1S)-5-((2R)-2-amino-3-((2,5-dioxo-1-(4-(3,6,9-tris(carboxymethyl)-3,6,9-triaza-1(2,6)-pyridinacyclodecaphane-4-yl)butyl)pyrrolidin-3-yl)thio)propanamido)-1-carboxypentyl)carbamoyl)-L-glutamic acid]
stability (radiochemical purity by HPLC) [2]: 74% | stability (radiochemical purity by HPLC) ([3]; t=4 hours): 94% | stability (radiochemical purity by HPLC) ([3]; t=8 hours): 95% | stability (radiochemical purity by HPLC) ([3]; t=24 hours): 94%

Tetra-tert-butyl 2,2′-(1^4-(3-((tert-butoxycarbonyl)amino)propoxy)-3,7-diaza-1(2,6)-pyridina-5(1,3)-benzenacyclooctaphane-3,7-diyl)(2R,2′R)-disuccinate
ring closure, isolated yield ([1]; 2,6-bis(bromomethyl)pyridine (1 eq)/DIPEA (5 eq), 32.6 mM): 55.3%

Tetra-tert-butyl 2,2′-(1^4-(methoxycarbonyl)-6-oxa-3,9-diaza-1(2,6)-pyridinacyclodecaphane-3,9-diyl)(2R,2′R)-disuccinate
ring closure, isolated yield ([1]; methyl 2,6-bis(bromomethyl)isonicotinate (1 eq)/DIPEA (5 eq), 17.9 mM): 57.1%

Tri-tert-butyl 2,2′,2″-(1^4-(3-((tert-butoxycarbonyl)amino)propoxy)-3,6,9-triaza-1(2,6)-pyridinacyclodecaphane-3,6,9-triyl)(2S,2′S,2″S)-tripropionate
ring closure, yield after HPLC [4]: 52%
